In one assay the target is ACL (Homo sapiens (Human), UniProt P53396). In words: ADP-Glo Assay. Type of assay: biochemical. The note with it: 3 nM ACL, 15 μM ATP, 3 μM CoA, 300 μM Citrate. The protocol:
Example 28. ADP-Glo Assay
Compounds of the present invention were evaluated in an ADP-GLO assay as follows: a) Dilute cpd 1:3 in succession in DMSO by hand for each cpds for 12 pts b) Add 0.1 μL diluted cpd solution to assay plate, each dose with 2 replicates c) Centrifuge 1000 RPM for 1 min d) Add 5 μL ACL working solution to 384-well assay plate, centrifuge 1000 RPM for 1 min e) Incubate at 25° C. for 15 min f) Add 5 μL substrate working solution to initiate reaction g) Final ACL reaction concentrations: 3 nM ACL, 15 μM ATP, 3 μM CoA, 300 μM Citrate, 0.01% Brij35, 4 mM DTT, 1% DMSO; h) Reference final conc: 30 uM starting Conc, 3× dilution, 11+0 points. Test cpd conc: 30/100 uM starting Conc, 3× dilution, 11+0 points. i) Incubate at 25° C. for 60 min j) Add 10 μL ADP Glo reagent, centrifuge 1000 RPM for 1 min k) Incubate at 25° C. for 40 min l) Add 20 μL kinase detection reagent, centrifuge 1000 RPM for 1 min m) Incubate at 25° C. for 40 min n) Read on Envision for US LUM as RLU
For orientation: In ADP-Glo the light output rises with the ADP produced.

In assay [1] the test system is HepG2 cells. Nature of the assay: ACLY HepG2 14C-pyruvate incorporation assay with serum (IC50 Cholesterol). As to conditions: Homo sapiens, Table 7, with serum, IC50 Cholesterol per table title and b713 (column head prints Fatty Acid), read-out: ACLY HepG2 ^14C- Pyruvate Assay with serum IC50 Fatty Acid 96 well (IC50). Type of assay: cell-based. The protocol: (§1) Example 30. ACLY HepG2 ^14C-Pyruvate Incorporation Assay with Serum
(§2) Compounds of the invention were also assayed in an ACLY HepG2 ^14C-pyruvate incorporation assay with serum (IC50 Cholesterol) and (IC50 Fatty Acid). The protocol of the assay (below) was followed:
(§3) HepG2 cells were seed at 5 k cells/well in 96-well cell culture plate in DMEM with 10% FBS (heat inactivated and 25 mM glucose). After 48 hours, the medium was replaced with fresh medium containing 10% FBS (heat inactivated and 25 mM glucose).
(§4) After 18 hours, the medium was replaced with 200 uL of DMEM (5.5 mM glucose without pyruvate) with or without FBS containing compounds (30, 10, 3.33, 1.11, 0.370, 0.123, 0.041 uM). DMSO concentration was 0.5%. The cells were incubated with compounds at 37° C. for 1 hour.
(§5) 2 μci of [14C]-pyruvate was added per well and the cell samples were incubated at 37° C., 5% CO2 for 5 hours.
(§6) The medium was removed and placed into a 96-well polypropylene deep well plate. 200 uL of 0.1N NaOH was added to each well at room temperature to dissolve cell monolayer. The remaining cell suspension was pooled with medium in a 96-well polypropylene deep well plate. 68 uL of 50% KOH was added to the plate containing medium and cell suspensions and capped.
(§7) Cells were incubated at 70° C. for 1 hour, and then cooled to room temperature.
6. Cholesterol Extraction
1 mL petroleum ether was added per well to extract non-saponifyable lipids (primarily sterols such as cholesterol), shaken vigorously, and centrifuged at 1000 rpm for 5 minutes. 500 μL of the petroleum ether layer was then transferred to a 96 well plate and 200 ul of H2O was added, shaken vigorously, and centrifuged at 1000 rpm for 5 minutes. The petroleum ether layer 500 ul was transferred to a new 96-well plate and evaporated to dryness with SpeedVac overnight. 200 μL of scintillation cocktail was then added and shaken and transferred to a 96 well optiplate and counted using the Microbeta Liquid Scintillation Counter.

Assay [2] concerns HepG2 cells. Nature of the assay: ACLY HepG2 14C-pyruvate incorporation assay with serum (IC50 Fatty Acid). As to conditions: Homo sapiens, Table 8, with serum, read-out: ACLY HepG2 ^14C- Pyruvate Assay with serum IC50 Fatty Acid 96 well (IC50). Type of assay: cell-based. The protocol:
as §1, §2, §3, §4, §5, §6, §7
400 ul of the remaining 500 ul petroleum ether layer was removed and discard. 1 mL petroleum ether was added to the well, shaken vigorously, and centrifuged at 1000 rpm for 5 minutes. All 1100 ul of the petroleum ether layer removed and discarded. The aqueous phase was then acidified with 500 uL of concentrated HCl, checking pH of one or two extracts to make sure pH below 1 (critical, check by PH paper).
8. Fatty acids extraction
1 mL of petroleum ether was added per well to extract saponifyable lipids (extracted as fatty acids originating from saponified lipids such as triglycerides and phospholipids), shaken vigorously, centrifuged at 1000 rpm for 5 min, and 500 uL of the petroleum ether layer was then transferred to a new 96-well deep well plate. Repeat petroleum ether extraction step one more time and pool the petroleum ether extracts. Evaporate to dryness with SpeedVac overnight. 200 μL of scintillation cocktail was added and shaken and transferred to a 96 well optiplate and counted using the Microbeta Liquid Scintillation Counter.

The subject of the next assay is ACC1. The note with it: ACC1 isolated from rat, mouse, monkey and human; cited from earlier work.
Another assay concerns ACC2. The note with it: ACC2 isolated from rat, mouse, monkey and human; cited from earlier work.

Consider 33 compounds from patent US11492341B2, “ACLY inhibitors and uses thereof” (Nimbus Artemis, Inc., priority 2018, dated 2022).

Sequence of ACL (P53396 whole entry, species assumed): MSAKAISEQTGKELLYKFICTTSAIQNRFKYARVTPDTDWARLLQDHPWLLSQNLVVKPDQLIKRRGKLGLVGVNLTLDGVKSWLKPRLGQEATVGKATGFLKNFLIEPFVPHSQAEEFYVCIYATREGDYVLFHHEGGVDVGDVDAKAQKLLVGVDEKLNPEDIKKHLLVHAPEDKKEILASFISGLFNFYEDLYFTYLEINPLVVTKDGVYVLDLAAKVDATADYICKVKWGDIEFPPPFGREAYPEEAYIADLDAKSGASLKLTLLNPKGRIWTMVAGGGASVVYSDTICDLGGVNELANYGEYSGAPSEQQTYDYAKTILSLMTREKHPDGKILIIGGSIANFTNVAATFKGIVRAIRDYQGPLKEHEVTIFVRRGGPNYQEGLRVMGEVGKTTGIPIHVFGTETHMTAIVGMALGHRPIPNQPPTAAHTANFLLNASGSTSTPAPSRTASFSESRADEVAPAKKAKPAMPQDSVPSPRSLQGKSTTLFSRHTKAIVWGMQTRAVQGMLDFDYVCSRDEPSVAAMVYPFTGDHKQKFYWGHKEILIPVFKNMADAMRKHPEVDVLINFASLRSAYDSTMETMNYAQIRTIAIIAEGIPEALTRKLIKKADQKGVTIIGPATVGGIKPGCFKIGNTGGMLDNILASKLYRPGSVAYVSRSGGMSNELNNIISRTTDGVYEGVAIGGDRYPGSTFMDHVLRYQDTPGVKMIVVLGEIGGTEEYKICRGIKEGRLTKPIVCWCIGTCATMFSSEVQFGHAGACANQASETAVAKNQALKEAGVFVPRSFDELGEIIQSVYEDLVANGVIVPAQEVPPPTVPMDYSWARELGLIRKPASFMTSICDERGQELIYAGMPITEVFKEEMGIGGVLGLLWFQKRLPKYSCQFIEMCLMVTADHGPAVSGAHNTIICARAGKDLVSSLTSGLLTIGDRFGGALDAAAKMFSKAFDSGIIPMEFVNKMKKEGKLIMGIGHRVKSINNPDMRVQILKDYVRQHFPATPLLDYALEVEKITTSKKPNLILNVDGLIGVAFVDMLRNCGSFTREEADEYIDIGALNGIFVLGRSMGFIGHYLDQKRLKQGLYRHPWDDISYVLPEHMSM

Regarding `N#Cc1ccc2c(c1)cc(-c1ccccc1)n2S(=O)(=O)c1cc(Br)cc(Cl)c1O` [I-48], the IC50 is 0.5 to 20 µM at ACL, not above 10 µM with HepG2 cells [1] and not above 10 µM in the assay with HepG2 cells [2].
In the case of `COc1ccc(-c2cc3cc(Cl)ccc3n2S(=O)(=O)c2cc(Br)cc(Cl)c2O)cc1` [I-26, 4-bromo-2-chloro-6-((5-chloro-2-(4-methoxyphenyl)-1H-indol-1-yl)sulfonyl)phenol], the 50% inhibitory concentration (IC50) at ACL was 0.5 to 20 µM; in the assay with HepG2 cells [1], not above 10 µM; in the assay on HepG2 cells [2], not above 10 µM.
Consider `O=S(=O)(c1cc(Br)cc(Cl)c1O)n1c(-c2ccccc2)cc2cc(F)ccc21` [I-42], for which the results for the IC50 against ACL, in the assay on HepG2 cells [1] and in the assay with HepG2 cells [2] were 0.5 to 20 µM, not above 10 µM and not above 10 µM, respectively.
In the case of `O=C(c1c2ccccc2cc2ccccc12)N1CCC(N2CCC[C@@H](C(=O)N3CCOCC3)C2)CC1` [CP-640186], the IC50 in the assay on ACC1 and with ACC2 was approximately 0.06 µM throughout.
Turning to `Cc1c(-c2ccccc2)n(S(=O)(=O)c2cc(Br)cc(Cl)c2O)c2ccc(Cl)cc12` [I-47], the IC50 is 0.5 to 20 µM on ACL, not above 10 µM in the assay with HepG2 cells [1] and not above 10 µM with HepG2 cells [2].
As to `O=S(=O)(c1cc(F)cc(F)c1O)n1c(-c2ccccc2)cc2cc(Cl)ccc21` [I-61], the IC50 against ACL was 0.5 to 20 µM; with HepG2 cells [1] it was not above 10 µM; in the assay with HepG2 cells [2], not above 10 µM.
For the compound `O=S(=O)(c1cc(Br)cc(Cl)c1O)n1c(-c2cncs2)cc2cc(Cl)ccc21` [I-33, 4-bromo-2-chloro-6-((5-chloro-2-(thiazol-5-yl)-1H-indol-1-yl)sulfonyl)phenol], the IC50 is 0.5 to 20 µM against ACL, not above 10 µM in the assay with HepG2 cells [1] and not above 10 µM in the assay on HepG2 cells [2].
For `COc1ccc(-c2cc3cc(Cl)ccc3n2S(=O)(=O)c2cc(Br)cc(Cl)c2O)cn1` [I-28, 4-bromo-2-chloro-6-((5-chloro-2-(6-methoxypyridin-3-yl)-1H-indol-1-yl)sulfonyl)phenol], the IC50 is 0.5 to 20 µM on ACL, not above 10 µM in the assay on HepG2 cells [1] and not above 10 µM in the assay with HepG2 cells [2].
In the case of `N#Cc1ccc2c(c1)cc(-c1ccc(OC(F)(F)F)cc1)n2S(=O)(=O)c1cc(F)cc(F)c1O` [I-81], the figures for the IC50 against ACL, in the assay on HepG2 cells [1] and in the assay on HepG2 cells [2] were 0.5 to 20 µM, not above 10 µM and not above 10 µM, respectively.
In the case of `O=S(=O)(c1cc(Br)cc(Cl)c1O)n1c(-c2ccc(OC(F)(F)F)cc2)cc2cc(Cl)ccc21` [I-25, 4-bromo-2-chloro-6-((5-chloro-2-(4-(trifluoromethoxy)phenyl)-1H-indol-1-yl)sulfonyl)phenol], the IC50 on ACL was 0.5 to 20 µM; in the assay on HepG2 cells [1], not above 10 µM; in the assay with HepG2 cells [2], not above 10 µM.
Take `Cc1cc2cc(Cl)ccc2n1S(=O)(=O)c1cc(Br)cc(Cl)c1O` [I-30, 4-bromo-2-chloro-6-((5-chloro-2-methyl-1H-indol-1-yl)sulfonyl)phenol]: the IC50 was 0.5 to 20 µM on ACL, not above 10 µM in the assay on HepG2 cells [1] and not above 10 µM in the assay with HepG2 cells [2].
On ACL, `CC(=O)Nc1ccc2c(c1)CN(S(=O)(=O)c1cc(Cl)cc(Cl)c1O)CC2` [I-13] came in with an IC50 of 0.5 to 20 µM.
The compound `Cc1c(C)n(S(=O)(=O)c2cc(Br)cc(Cl)c2O)c2ccc(Cl)cc12` [I-36] gave a half-maximal inhibitory concentration (IC50) at ACL of 0.5 to 20 µM.
In the case of `N#Cc1cc(Cl)c(O)c(S(=O)(=O)n2c(-c3ccccc3)cc3cc(Cl)ccc32)c1` [I-78], the IC50 at ACL lay in the range of 0.5 to 20 µM.
On the same count and under the same terms, then `N#Cc1ccc2c(c1)cc(-c1ccccc1)n2S(=O)(=O)c1cc(F)cc(F)c1O` [I-77], with 0.5 to 20 µM.
With `O=S(=O)(c1cc(Br)cc(Cl)c1O)n1c(-c2ccccc2)cc2cc(Cl)ccc21` [I-1, 4-bromo-2-chloro-6-((5-chloro-2-phenyl-1H-indol-1-yl)sulfonyl)phenol], the IC50 was 0.5 to 20 µM against ACL, not above 10 µM in the assay with HepG2 cells [1] and not above 10 µM in the assay on HepG2 cells [2].
With `O=C(O)c1cc(Cl)c(O)c(S(=O)(=O)n2c(-c3ccccc3)cc3cc(Cl)ccc32)c1` [I-73], on ACL, the half-maximal inhibitory concentration (IC50) lay in the range of 0.5 to 20 µM.
The same measure, in the same setting: then `O=S(=O)(c1cc(Br)cc(Cl)c1O)n1c(-c2ccccc2)cc2ccccc21` [I-23, 4-bromo-2-chloro-6-((2-phenyl-1H-indol-1-yl)sulfonyl)phenol], with 0.5 to 20 µM; and `O=S(=O)(c1cc(Br)cc(Cl)c1O)n1c(-c2cc3ccccc3s2)cc2cc(Cl)ccc21` [I-144], with 0.5 to 20 µM.
For the compound `COC(=O)c1ccc2c(c1)cc(-c1ccccc1)n2S(=O)(=O)c1cc(Br)cc(Cl)c1O` [I-53], at ACL, the IC50 lay within 0.5 to 20 µM.
On to `O=S(=O)(c1cc(F)cc(F)c1O)n1c(-c2cnc(C(F)(F)F)nc2)cc2cc(Cl)ccc21` [I-137], for which, at ACL, the IC50 lay in the range of 0.5 to 20 µM.
On the same count and under the same terms, as for `O=C(O)c1c(-c2ccccc2)c2cc(Cl)ccc2n1S(=O)(=O)c1cc(Cl)cc(Cl)c1` [I-104], the figure is 0.5 to 20 µM; as for `O=S(=O)(c1ccccc1O)n1c(-c2ccccc2)cc2cc(Cl)ccc21` [I-106, 2-((5-chloro-2-phenyl-1H-indol-1-yl)sulfonyl)phenol], not below 20 µM.
Consider `COc1ccc(N2CCN(S(=O)(=O)c3cc(Cl)cc(Cl)c3O)CC2)cc1` [I-16], for which the IC50 against ACL was 0.5 to 20 µM.
`Cn1cc(-c2cc3cc(C#N)ccc3n2S(=O)(=O)c2cc(F)cc(F)c2O)cn1` [I-118] showed an IC50 on ACL not below 20 µM.
As for `O=S(=O)(c1cc(Br)cc(Cl)c1O)n1c(-c2cccc(F)c2)cc2cc(Cl)ccc21` [I-40], the IC50 against ACL was 0.5 to 20 µM; in the assay with HepG2 cells [1], not above 10 µM; with HepG2 cells [2], not above 10 µM.
At ACL, `O=S(=O)(c1cc(Br)cc(Cl)c1O)n1c(Cc2ccccc2OC(F)(F)F)cc2cc(Cl)ccc21` [I-151] returned an IC50 of 0.5 to 20 µM.
Same read-out and setting: as for `O=C(c1cc2cc(Cl)ccc2n1S(=O)(=O)c1cc(Cl)cc(Cl)c1O)N1CCCCC1` [I-72], the figure is 0.5 to 20 µM; as for `Cc1cc2cc(Cl)c(C(=O)O)cc2n1S(=O)(=O)c1cc(Br)cc(Cl)c1O` [I-160], 0.5 to 20 µM.
Still for that read-out and setting: then `O=C(O)c1cccc(-c2cc3cc(Cl)ccc3n2S(=O)(=O)c2cc(Br)cc(Cl)c2O)c1` [I-44], with less than 0.5 µM.
The same measure, in the same setting: then `CN(C)C(=O)c1ccccc1-c1cc2cc(Cl)ccc2n1S(=O)(=O)c1cc(Br)cc(Cl)c1O` [I-38], with 0.5 to 20 µM; and `O=S(=O)(c1cc(Cl)cc(Cl)c1O)n1c(-c2cccc(OC(F)(F)F)c2)cc2cc(Cl)ccc21` [I-54], with 0.5 to 20 µM; and `Cc1nc(=O)c2cc(Cl)ccc2n1S(=O)(=O)c1cc(Br)cc(Cl)c1O` [I-155], with not below 20 µM.

What is called IC50 is the concentration that gives 50% inhibition.
